Numbers after ± are expanded uncertainties.
Test: mn = molality of the nth substance listed, in mol/kg
Conditions: 101 kPa, Liquid; for speed of sound: Sing-around technique in a fixed-path interferometer; for mass density: Vibrating tube method

NCC(=O)NCC(=O)O [glycylglycine] + O
Conditions | mass density, 293.15 K [kg/m3] | mass density, 298.15 K [kg/m3] | mass density, 303.15 K [kg/m3] | speed of sound, 293.15 K [m/s] | speed of sound, 298.15 K [m/s] | speed of sound, 303.15 K [m/s]
m1 = 0.0467 | 1000.84 ± 0.12 | 999.656 ± 0.12 | 998.24 ± 0.12 | 1486.4 ± 1.2 | 1500.5 ± 1.2 | 1512.8 ± 1.2
m1 = 0.103 | 1003.95 ± 0.12 | 1002.74 ± 0.12 | 1001.3 ± 0.12 | 1491.2 ± 1.2 | 1505.2 ± 1.2 | 1517.2 ± 1.2
m1 = 0.1479 | 1006.4 ± 0.12 | 1005.17 ± 0.12 | 1003.71 ± 0.12 | 1495 ± 1.2 | 1508.8 ± 1.2 | 1520.7 ± 1.2
m1 = 0.1998 | 1009.2 ± 0.12 | 1007.93 ± 0.12 | 1006.45 ± 0.12 | 1499.3 ± 1.2 | 1513 ± 1.2 | 1524.8 ± 1.2
m1 = 0.251 | 1011.92 ± 0.12 | 1010.63 ± 0.12 | 1009.13 ± 0.12 | 1503.5 ± 1.2 | 1517 ± 1.2 | 1528.7 ± 1.2
m1 = 0.2973 | 1014.35 ± 0.12 | 1013.04 ± 0.12 | 1011.52 ± 0.12 | 1507.3 ± 1.2 | 1520.6 ± 1.2 | 1532.2 ± 1.2
m1 = 0.347 | 1016.93 ± 0.12 | 1015.59 ± 0.12 | 1014.07 ± 0.12 | 1511.3 ± 1.2 | 1524.4 ± 1.2 | 1536 ± 1.2
m1 = 0.402 | 1019.73 ± 0.12 | 1018.38 ± 0.12 | 1016.83 ± 0.12 | 1515.7 ± 1.2 | 1528.7 ± 1.2 | 1540.2 ± 1.2
m1 = 0.4499 | 1022.14 ± 0.12 | 1020.78 ± 0.12 | 1019.21 ± 0.12 | 1519.3 ± 1.2 | 1532.3 ± 1.2 | 1543.6 ± 1.2

NCC(=O)NCC(=O)NCC(=O)O [glycylglycylglycine] + O
Conditions | mass density, 293.15 K [kg/m3] | mass density, 298.15 K [kg/m3] | mass density, 303.15 K [kg/m3] | mass density, 308.15 K [kg/m3] | speed of sound, 293.15 K [m/s] | speed of sound, 298.15 K [m/s] | speed of sound, 303.15 K [m/s] | speed of sound, 308.15 K [m/s]
m1 = 0.025 | 1000.18 ± 0.13 | 999.002 ± 0.13 | 997.591 ± 0.13 | 995.964 ± 0.13 | 1485.2 ± 1.2 | 1499.3 ± 1.2 | 1511.6 ± 1.2 | 1522.2 ± 1.2
m1 = 0.05 | 1002.1 ± 0.13 | 1000.91 ± 0.13 | 999.479 ± 0.13 | 997.839 ± 0.13 | 1487.9 ± 1.2 | 1501.9 ± 1.2 | 1514.1 ± 1.2 | 1524.6 ± 1.2
m1 = 0.075 | 1004 ± 0.13 | 1002.79 ± 0.13 | 1001.35 ± 0.13 | 999.696 ± 0.13 | 1490.5 ± 1.2 | 1504.4 ± 1.2 | 1516.5 ± 1.2 | 1527 ± 1.2
m1 = 0.0999 | 1005.88 ± 0.13 | 1004.66 ± 0.13 | 1003.2 ± 0.13 | 1001.54 ± 0.13 | 1493.1 ± 1.2 | 1507 ± 1.2 | 1518.9 ± 1.2 | 1529.3 ± 1.2
m1 = 0.1248 | 1007.76 ± 0.13 | 1006.52 ± 0.13 | 1005.05 ± 0.13 | 1003.37 ± 0.13 | 1495.6 ± 1.2 | 1509.5 ± 1.2 | 1521.3 ± 1.2 | 1531.6 ± 1.2
m1 = 0.15 | 1009.64 ± 0.13 | 1008.38 ± 0.13 | 1006.9 ± 0.13 | 1005.21 ± 0.13 | 1498.1 ± 1.2 | 1511.8 ± 1.2 | 1523.7 ± 1.2 | 1533.9 ± 1.2
m1 = 0.175 | 1011.5 ± 0.13 | 1010.22 ± 0.13 | 1008.72 ± 0.13 | 1007.02 ± 0.13 | 1500.6 ± 1.2 | 1514.2 ± 1.2 | 1526 ± 1.2 | 1536.1 ± 1.2
m1 = 0.1926 | 1012.79 ± 0.13 | 1011.5 ± 0.13 | 1010 ± 0.13 | 1008.29 ± 0.13 | 1502.3 ± 1.2 | 1515.9 ± 1.2 | 1527.7 ± 1.2 | 1537.7 ± 1.2
m1 = 0.2706 | 1018.47 ± 0.13 | 1017.13 ± 0.13 | 1015.58 ± 0.13 | 1013.84 ± 0.13 | 1509.7 ± 1.2 | 1522.9 ± 1.2 | 1534.4 ± 1.2 | 1544.3 ± 1.2

O [water] + NCC(=O)NCC(=O)NCC(=O)O
Conditions | mass density [kg/m3]
308.15 K, m2 = 0 | 994.08 ± 0.13

From the NIST ThermoML archive (doi:10.1016/j.jct.2012.10.018)
